Reference: patent US20240336588A1, “COMPOSITIONS AND METHODS FOR ANTIOXIDANT AND ANTI-INFLAMMATORY THERAPEUTICS” (AVANTI BIOSCIENCES INC., priority 2021, published 2024)
Like-named read-outs stand apart in the source and are kept apart here. One block for each compound: values may come before it.

Legend:
[1] = target: DYRK1A (HT-497, 6×His tagged rat truncated DYRK1A isoform X1 residues 1-497) (Rattus norvegicus (Rat), UniProt Q63470); assay: DYRK1A ELISA assay (HT-PRD phosphorylation); type: biochemical; conditions: 100 µM ATP, 5 ng HT-497, 30 min at 30° C.
Description: Compounds of Table 1, above, were examined in vitro for activity against DYRK1A, DYRK1B, DYRK2 via an ELISA assay.
(§1) DYRK1A assay. […] After blocking, wells were washed extensively with dilution buffer before subjecting to phosphorylation. […] At the end point, wells were washed with ˜350 μl dilution buffer three times to terminate the reaction. […] Each point was run in quadruplicate with DMSO present in all assays at 0.2% final concentration. […] HT-PRD phosphorylation was subsequently determined by the sandwich antibody staining protocol, first with 100 μl mouse mAb 3D3 specific for detecting DYRK1A-phosphorylated PRD (60 min at room temperature) then with 100 μl alkaline phosphatase (AP)-linked anti-mouse secondary antibody (60 min at room temperature), followed by colorimetric reaction with 100 μl PNPP solution (PNPP substrate tablet, Thermo Fisher). […] The readings were then recorded for subsequent IC50 calculation. The DYRK1A assay protocol can also support DYRK1B and DYRK2 phosphorylation reactions in the enzyme concentration-dependent manner; therefore, the method was adapted for measuring the activity of candidate compounds against DYRK1B and DYRK2. For DYRK2, the reactions were performed as described above with 6 ng HT-DYRK2 (6×His tagged full-length human DYRK2 isoform 1). For DYRK1B, the assays were also similarly conducted but with 70 ng GST-DYRK1B (glutathione S-transferase tagged full length human DYRK1B isoform p65) and an extended kinase reaction time of 60 min.
Dilution factors for both mAb 3D3 and secondary antibody were pre-determined for each batch of antibody to ensure that neither antibody was limiting in the assay.
(§2) Data transformation, calculation, plotting, curve fitting, and IC 50 calculation were performed in KaleidaGraph (http://www.synergy.com/wordpress_650164087; Mac version 4.1). Data was corrected for background (readings from wells with only PNPP) before subsequent manipulations. […] The resulting residual activity was then plotted against its corresponding inhibitor concentrations in semi-log graph and the plot was fit to the sigmoidal equation, y=a+(b−a)/(1+(x/c)^d), for IC50 calculation.

[2] = system: MOG35-55-induced chronic progressive Experimental Autoimmune Encephalomyelitis (EAE); assay: MOG35-55-induced murine model of chronic progressive EAE; type: in vivo, mice; conditions: for activity in the EAE model (reference compounds): reference compound
Text: Compound 40 of Table 1 was examined for application in neurodegenerative disorders using a MOG35-55-induced murine model of chronic progressive Experimental Autoimmune Encephalomyelitis (EAE), an inflammation model predictive for multiple sclerosis (MS).
Without being bound by theory, the present inventors note that compound 40 could have a peripheral immunomodulation effect and an overall neuroprotective effect, which could have advantageous implications for the treatment of neurodegenerative disorders like Alzheimer's disease and Multiple Sclerosis.

[3] = target: DYRK1B (GST tagged full length human DYRK1B isoform p65) (Homo sapiens (Human), UniProt Q9Y463); assay: DYRK1B ELISA assay; type: biochemical; conditions: 70 ng GST-DYRK1B, kinase reaction time 60 min
Description: as §1, §2
Compounds of Table 1, above, were examined in vitro for activity against DYRK1B, via an ELISA assay.

[4] = system: 8 major CYP enzymes; assay: CYP inhibition in human liver microsomes; type: in vitro ADME; conditions: c=10 μM
Description: Compound 68 was also tested for its inhibitor activity against the 8 major CYP enzymes in human liver microsomes.

[5] = target: Potassium channel hERG (Homo sapiens (Human), UniProt Q12809); assay: Eurofins safetyscreen87 panel; type: binding; conditions: c=10 μM
[6] = in vivo; conditions: male, C57BL/6, mouse
[7] = target: COX2 (Homo sapiens (Human), UniProt P35354); assay: Eurofins safetyscreen87 panel; type: biochemical
[8] = mouse, in vivo
[9] = system: 87 different targets; assay: Eurofins safetyscreen87 panel (whole panel)
[10] = male, C57BL/6, mouse, in vivo
[11] = target: PDE3A (Homo sapiens (Human), UniProt Q14432); assay: Eurofins safetyscreen87 panel; type: biochemical
[12] = system: 12 transporter proteins including BCRP and PgP; assay: Transporter substrate test (Eurofins panels); type: in vitro ADME
[13] = target: COX1 (Homo sapiens (Human), UniProt P23219); assay: Eurofins safetyscreen87 panel; type: biochemical
[14] = system: lipopolysaccharide (LPS)-induced TNF-α model; assay: Lipopolysaccharide (LPS)-induced TNF-α model; type: in vivo, C57BL/6 mice; conditions: intranasally 3, 10, 30 mg/kg and orally 30 mg/kg, 5 days
Description: 12-week-old male C57BL/6 mice were used.
On day 5, one hour after LPS treatment, all animals were euthanized via CO2. The plasma, hippocampus and cortex were collected and immediately stored at liquid nitrogen and transferred to −80° C. Tissues were used for ELISA and Western Blot analysis to determine levels of TNF-α and pTau.

[15] = in vivo; conditions: male, C57BL/6, mouse; remark: listed apart in the source
[16] = system: Salmonella typhimurium (TA98, TA100, TA97a, and TA1535); assay: mini-Ames assay; conditions: 5 concentrations up to 100 μM, absence or presence of rat liver S9
Description: The compound dissolved in DMSO was evaluated at 5 concentrations up to […] in the absence or presence of metabolic activation (rat liver S9).

[17] = target: DYRK2 (Homo sapiens (Human), UniProt Q92630); conditions: literature value; cited from earlier work
[18] = twice daily intranasal administration, 15 mg/kg
[19] = inhaled or intranasal, 10 mg/kg
[20] = inhaled or intranasal, 30 mg/kg

DYRK1B (GST tagged full length human DYRK1B isoform p65), sequence (Q9Y463 other isoform, or with tags, fused parts or gaps): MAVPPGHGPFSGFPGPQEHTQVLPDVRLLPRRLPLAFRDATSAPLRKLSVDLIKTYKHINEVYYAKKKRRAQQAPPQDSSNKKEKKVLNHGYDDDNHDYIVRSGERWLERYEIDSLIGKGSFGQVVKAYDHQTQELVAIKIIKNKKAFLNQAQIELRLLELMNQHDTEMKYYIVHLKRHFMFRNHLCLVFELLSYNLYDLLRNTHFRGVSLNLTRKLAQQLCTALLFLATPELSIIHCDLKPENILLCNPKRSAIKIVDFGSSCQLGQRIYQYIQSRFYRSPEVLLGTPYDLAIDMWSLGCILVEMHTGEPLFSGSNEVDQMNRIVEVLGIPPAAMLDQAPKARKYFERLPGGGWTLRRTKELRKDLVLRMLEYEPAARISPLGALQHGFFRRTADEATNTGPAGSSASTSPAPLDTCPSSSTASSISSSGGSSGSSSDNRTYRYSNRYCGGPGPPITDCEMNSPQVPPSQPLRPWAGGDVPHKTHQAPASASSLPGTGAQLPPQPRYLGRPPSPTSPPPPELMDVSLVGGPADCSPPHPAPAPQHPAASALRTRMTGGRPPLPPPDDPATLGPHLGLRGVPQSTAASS
DYRK2, sequence (Q92630 whole entry, species assumed): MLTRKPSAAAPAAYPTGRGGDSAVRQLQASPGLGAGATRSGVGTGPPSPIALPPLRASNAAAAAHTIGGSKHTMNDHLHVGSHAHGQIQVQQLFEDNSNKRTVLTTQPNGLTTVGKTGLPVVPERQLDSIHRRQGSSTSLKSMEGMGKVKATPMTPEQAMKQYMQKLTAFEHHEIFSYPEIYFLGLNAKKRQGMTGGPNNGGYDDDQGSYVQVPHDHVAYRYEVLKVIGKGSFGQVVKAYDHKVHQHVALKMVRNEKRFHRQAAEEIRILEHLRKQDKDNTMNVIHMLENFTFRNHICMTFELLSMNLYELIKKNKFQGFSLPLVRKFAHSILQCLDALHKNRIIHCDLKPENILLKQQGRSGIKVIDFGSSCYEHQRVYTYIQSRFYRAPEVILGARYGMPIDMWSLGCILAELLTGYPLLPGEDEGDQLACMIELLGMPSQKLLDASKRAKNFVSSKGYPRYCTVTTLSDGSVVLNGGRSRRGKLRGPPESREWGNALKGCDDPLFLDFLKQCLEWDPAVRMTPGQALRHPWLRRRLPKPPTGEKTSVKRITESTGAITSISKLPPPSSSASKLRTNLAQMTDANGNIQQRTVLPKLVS
Potassium channel hERG, sequence (Q12809 whole entry): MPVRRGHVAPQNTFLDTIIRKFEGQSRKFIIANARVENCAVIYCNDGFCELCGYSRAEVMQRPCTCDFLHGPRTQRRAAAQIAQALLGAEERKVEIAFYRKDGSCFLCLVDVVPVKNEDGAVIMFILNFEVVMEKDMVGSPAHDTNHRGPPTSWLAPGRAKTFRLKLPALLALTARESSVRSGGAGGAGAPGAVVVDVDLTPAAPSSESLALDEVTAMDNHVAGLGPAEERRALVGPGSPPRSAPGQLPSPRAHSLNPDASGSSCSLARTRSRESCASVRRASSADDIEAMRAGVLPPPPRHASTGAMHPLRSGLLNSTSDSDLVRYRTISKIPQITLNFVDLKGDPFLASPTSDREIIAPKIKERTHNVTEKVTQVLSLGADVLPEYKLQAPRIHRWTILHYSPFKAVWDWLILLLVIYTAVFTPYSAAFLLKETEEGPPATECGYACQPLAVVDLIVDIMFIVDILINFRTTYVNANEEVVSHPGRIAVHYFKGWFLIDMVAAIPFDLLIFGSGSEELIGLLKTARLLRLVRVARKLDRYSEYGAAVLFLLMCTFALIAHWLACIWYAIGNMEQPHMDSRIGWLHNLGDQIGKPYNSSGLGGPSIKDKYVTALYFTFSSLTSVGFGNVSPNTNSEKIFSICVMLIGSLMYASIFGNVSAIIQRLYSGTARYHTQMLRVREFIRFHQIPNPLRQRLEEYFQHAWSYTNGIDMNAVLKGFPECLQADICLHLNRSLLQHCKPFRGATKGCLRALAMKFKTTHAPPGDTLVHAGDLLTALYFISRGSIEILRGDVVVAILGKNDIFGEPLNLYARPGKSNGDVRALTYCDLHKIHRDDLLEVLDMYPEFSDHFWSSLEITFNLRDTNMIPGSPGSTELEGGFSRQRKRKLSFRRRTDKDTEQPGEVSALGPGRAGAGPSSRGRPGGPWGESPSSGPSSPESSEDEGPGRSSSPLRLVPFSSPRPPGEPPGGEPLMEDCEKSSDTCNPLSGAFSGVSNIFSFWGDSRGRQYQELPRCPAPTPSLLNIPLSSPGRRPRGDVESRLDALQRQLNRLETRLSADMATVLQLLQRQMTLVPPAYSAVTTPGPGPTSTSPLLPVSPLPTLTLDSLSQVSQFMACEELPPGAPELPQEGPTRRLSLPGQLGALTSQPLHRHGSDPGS
COX2, sequence (P35354 18-604): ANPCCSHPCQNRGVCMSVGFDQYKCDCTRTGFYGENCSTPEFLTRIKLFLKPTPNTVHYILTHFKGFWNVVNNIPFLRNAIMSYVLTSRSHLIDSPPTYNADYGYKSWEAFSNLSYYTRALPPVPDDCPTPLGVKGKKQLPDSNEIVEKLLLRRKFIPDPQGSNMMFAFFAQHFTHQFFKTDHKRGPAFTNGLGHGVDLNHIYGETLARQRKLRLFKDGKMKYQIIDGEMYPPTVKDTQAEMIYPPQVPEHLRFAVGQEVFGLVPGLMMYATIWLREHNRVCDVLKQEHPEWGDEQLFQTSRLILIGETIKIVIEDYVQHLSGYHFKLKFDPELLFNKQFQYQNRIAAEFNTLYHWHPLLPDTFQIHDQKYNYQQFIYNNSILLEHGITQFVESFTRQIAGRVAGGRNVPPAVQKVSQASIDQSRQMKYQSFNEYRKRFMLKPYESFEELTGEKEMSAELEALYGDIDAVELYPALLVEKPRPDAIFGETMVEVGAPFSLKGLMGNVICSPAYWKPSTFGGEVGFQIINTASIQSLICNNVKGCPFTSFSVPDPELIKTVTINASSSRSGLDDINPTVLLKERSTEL
COX1, sequence (P23219 24-599): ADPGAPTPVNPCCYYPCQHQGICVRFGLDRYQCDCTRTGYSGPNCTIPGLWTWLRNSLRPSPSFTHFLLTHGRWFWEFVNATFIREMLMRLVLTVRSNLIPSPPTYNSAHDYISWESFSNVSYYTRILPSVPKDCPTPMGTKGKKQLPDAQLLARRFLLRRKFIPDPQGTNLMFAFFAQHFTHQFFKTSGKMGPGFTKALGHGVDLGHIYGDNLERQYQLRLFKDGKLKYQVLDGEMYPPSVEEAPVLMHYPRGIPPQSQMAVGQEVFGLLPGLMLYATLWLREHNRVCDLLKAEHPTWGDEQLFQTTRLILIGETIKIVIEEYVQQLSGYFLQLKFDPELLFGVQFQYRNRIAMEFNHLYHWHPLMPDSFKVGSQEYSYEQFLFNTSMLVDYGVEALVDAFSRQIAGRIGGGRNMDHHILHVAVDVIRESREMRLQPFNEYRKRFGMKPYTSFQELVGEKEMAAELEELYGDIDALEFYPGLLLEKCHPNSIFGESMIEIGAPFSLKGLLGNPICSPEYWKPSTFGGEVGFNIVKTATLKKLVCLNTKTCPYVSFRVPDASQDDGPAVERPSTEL
PDE3A, sequence (Q14432 whole entry): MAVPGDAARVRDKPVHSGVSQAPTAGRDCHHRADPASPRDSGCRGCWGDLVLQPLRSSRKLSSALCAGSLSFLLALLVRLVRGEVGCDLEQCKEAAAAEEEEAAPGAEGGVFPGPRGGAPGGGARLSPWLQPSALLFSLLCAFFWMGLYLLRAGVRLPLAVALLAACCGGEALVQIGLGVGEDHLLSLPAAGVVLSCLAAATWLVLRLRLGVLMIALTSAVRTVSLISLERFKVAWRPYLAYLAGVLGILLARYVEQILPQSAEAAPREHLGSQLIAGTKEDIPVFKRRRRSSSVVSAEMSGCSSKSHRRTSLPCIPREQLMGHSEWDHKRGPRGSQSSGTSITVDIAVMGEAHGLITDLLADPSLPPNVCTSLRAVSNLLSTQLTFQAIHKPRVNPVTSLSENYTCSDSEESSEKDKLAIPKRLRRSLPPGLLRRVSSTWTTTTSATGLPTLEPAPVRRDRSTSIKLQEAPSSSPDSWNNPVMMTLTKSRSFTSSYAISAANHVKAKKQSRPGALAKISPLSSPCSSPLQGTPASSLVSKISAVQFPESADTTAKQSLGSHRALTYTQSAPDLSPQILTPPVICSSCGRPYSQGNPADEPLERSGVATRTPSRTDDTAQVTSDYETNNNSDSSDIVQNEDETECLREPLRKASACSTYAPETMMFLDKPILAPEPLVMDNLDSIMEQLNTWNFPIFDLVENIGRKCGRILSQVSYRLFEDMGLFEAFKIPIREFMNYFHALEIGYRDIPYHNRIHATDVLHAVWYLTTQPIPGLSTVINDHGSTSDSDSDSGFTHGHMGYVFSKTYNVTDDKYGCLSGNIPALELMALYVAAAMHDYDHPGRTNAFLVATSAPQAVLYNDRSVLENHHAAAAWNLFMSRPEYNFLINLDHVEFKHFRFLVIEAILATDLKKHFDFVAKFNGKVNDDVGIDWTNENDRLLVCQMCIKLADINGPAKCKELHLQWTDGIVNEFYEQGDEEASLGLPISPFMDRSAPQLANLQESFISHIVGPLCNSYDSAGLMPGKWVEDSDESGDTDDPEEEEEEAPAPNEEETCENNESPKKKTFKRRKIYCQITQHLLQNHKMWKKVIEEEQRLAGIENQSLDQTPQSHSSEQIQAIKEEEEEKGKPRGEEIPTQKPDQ

SMILES: O=C(O[C@@H]1Cc2c(O)cc(O)cc2O[C@@H]1c1cc(O)c(O)c(O)c1)c1cc(O)c(O)c(O)c1 [Compound 3, (2R,3R)-5,7-dihydroxy-2-(3,4,5-trihydroxyphenyl)chroman-3-yl 3,4,5-trihydroxybenzoate, reference compound]
- activity in the EAE model (reference compounds) ([2]; FIG. 1): no significant activity

SMILES: COc1cc(C(=O)O[C@@H]2Cc3c(O)cc(O)cc3O[C@H]2c2cc(O)c(O)c(O)c2)c(F)c(O)c1O [Compound 68, (2S,3R)-5,7-dihydroxy-2-(3,4,5-trihydroxyphenyl)chroman-3-yl 2-fluoro-3,4-dihydroxy-5-methoxybenzoate]
- inhibition of the CYP enzymes [4]: no inhibition
- IC50 [1]: < 100 nM
- activity against the Potassium channel hERG [5]: No activity
- CL/F ([6]; 30 mg/kg): 842 mL/min/kg
- Vd/F ([6]; 30 mg/kg): 17.1 L/kg
- AUC(0-inf) [6, 19]: 716 ng·h/mL
- AUC(0-t) [6, 19]: 702 ng·h/mL
- CL/F [6, 19]: 240 mL/min/kg
- Cmax [6, 19]: 489 ng/mL
- Vd/F [6, 19]: 41.7 L/kg
- bioavailability [6, 19]: > 100%
- AUC(0-inf) [6, 20]: 4990 ng·h/mL
- AUC(0-t) [6, 20]: 4950 ng·h/mL
- Cmax [6, 20]: 3140 ng/mL
- bioavailability [6, 20]: > 100%
- AUC(0-inf) ([6]; iv, 5 mg/kg): 348 ng·h/mL
- AUC(0-t) ([6]; iv, 5 mg/kg): 334 ng·h/mL
- Cmax ([6]; iv, 5 mg/kg): 257 ng/mL
- Vd ([6]; iv, 5 mg/kg): 22 L/kg
- clearance ([6]; iv, 5 mg/kg): 240 mL/min/kg
- AUC(0-inf) ([6]; po, 30 mg/kg): 92 ng·h/mL
- AUC(0-t) ([6]; po, 30 mg/kg): 78 ng·h/mL
- CL/F ([6]; po, 30 mg/kg): 100 mL/min/kg
- Cmax ([6]; po, 30 mg/kg): 41 ng/mL
- Vd/F ([6]; po, 30 mg/kg): 602 L/kg
- bioavailability ([6]; po, 30 mg/kg): 4%
- IC50 [7]: 182 nM
- T1/2 ([8]; inhaled or intranasal): 1.06 H
- T1/2 [8, 20]: 1.97 H
- T1/2 ([8]; iv, 5 mg/kg): 1.04 H
- T1/2 ([8]; po, 30 mg/kg): 1.27 H
- activity against other ion channels ([9]; c=10 μM): No activity
- profile over 87 different targets ([9]; screened at c=10 µM, significant activity only against COX1, COX2, PDE3A): very clean profile
- time measurable in whole-brain homogenate after dosing [10]: 4 h
- IC50 [11]: 380 nM
- substrate of transporter proteins [12]: not a substrate of any of them
- IC50 [13]: 1200 nM
- lipopolysaccharide-induced expression of TNF-alpha ([14]; hippocampus and plasma, ELISA, FIGS. 3-4): inhibit
- lipopolysaccharide-induced pTau ([14]; hippocampus, Western Blot (AT8 antibody), FIG. 5): inhibit
- IC50 [3]: < 100 nM
- concentration at 1 h [15]: 120 ng/g
- cytotoxicity in bacteria [16]: No evidence of cytotoxicity
- mutagenicity [16]: not mutagenic

SMILES: CCCCCCCCc1ccc(CCC(N)(CO)CO)cc1 [FTY720, Fingolimod, reference compound]
- activity in the EAE model (reference compounds) ([2]; FIG. 1): reversal of the disease

SMILES: COc1cc(N2CCN(C)CC2)ccc1Nc1nccc(-c2cn(C)c3cnccc23)n1 [AZ-191]
- IC50 [17]: 1890 nM

SMILES: COc1cc(C(=O)N[C@H]2Cc3c(O)cc(O)cc3O[C@@H]2c2cc(O)c(O)c(O)c2)cc(O)c1O [Compound 10, N-((2R,3S)-5,7-dihydroxy-2-(3,4,5-trihydroxyphenyl)chroman-3-yl)-3,4-dihydroxy-5-methoxybenzamide]
- IC50 [1]: > 1000 nM

SMILES: O=C(O[C@@H]1Cc2c(O)cc(O)cc2O[C@H]1c1ccc(O)c(O)c1)c1cc(O)c(O)c(O)c1 [Compound 7, (2S,3R)-2-(3,4-dihydroxyphenyl)-5,7-dihydroxychroman-3-yl 3,4,5-trihydroxybenzoate]
- IC50 [1]: > 100 nM

SMILES: Nc1ncc(C(=O)O[C@H]2Cc3c(O)cc(O)cc3O[C@@H]2c2ccc(O)c(O)c2)cc1O [Compound 29, (2R,3S)-2-(3,4-dihydroxyphenyl)-5,7-dihydroxychroman-3-yl 6-amino-5-hydroxynicotinate]
- IC50 [1]: > 1000 nM

Now from value to compound, other results behind:

- IC50 [1]: < 100 nM
- IC50 [3]: < 100 nM
SMILES: O=C(O[C@@H]1Cc2c(O)cc(O)cc2O[C@H]1c1cc(O)c(O)c(O)c1)c1cc(O)c(O)c(O)c1F [Compound 40, (2S,3R)-5,7-dihydroxy-2-(3,4,5-trihydroxyphenyl)chroman-3-yl 2-fluoro-3,4,5-trihydroxybenzoate]
- axons and myelin during chronic EAE ([2]; Bielschowsky silver staining (neurofilaments), LFB staining (myelin)): preserved axons and myelin
- spinal cord inflammation, hematoxylin and eosin staining ([2]; compared to the vehicle control group): significant spinal cord inflammation reductions
- lesion severity scores, histopathology of spinal cord section ([2]; treated intranasally, compared to the other treatment groups, FIG. 2): significant (p<0.001) reductions in lesion severity scores
- reduction of brain IFNγ [2, 18]: 90%
- reduction of brain IL-17 [2, 18]: 79%
- effect on disease course (EAE) ([2]; twice daily intranasal administration, 15 mg/kg, FIG. 1): reversal of the disease

- IC50 [1]: < 100 nM
- IC50 [3]: < 100 nM
SMILES: O=C(O[C@@H]1Cc2c(O)cc(O)cc2O[C@H]1c1cc(O)c(O)c(O)c1)c1c(F)c(O)c(O)c(O)c1F [Compound 51, (2S,3R)-5,7-dihydroxy-2-(3,4,5-trihydroxyphenyl)chroman-3-yl 2,6-difluoro-3,4,5-trihydroxybenzoate]

- IC50 [1]: < 100 nM
- IC50 [3]: > 100 nM
SMILES: O=C(O[C@@H]1Cc2c(O)cc(O)cc2O[C@H]1c1ccc(O)c(O)c1)c1cc(O)c(O)c(O)c1F [Compound 55, (2S,3R)-2-(3,4-dihydroxyphenyl)-5,7-dihydroxychroman-3-yl 2-fluoro-3,4,5-trihydroxybenzoate]
